The values below come from ChEMBL document CHEMBL1128309, “Antitumor activity of 9(R)-dihydrotaxane analogs” (1995).

Structures are written as SMILES.

Common to all, as to assay type: functional
One assay has as its system A549. Description: Cytotoxicity against human lung carcinoma A549 cell line.
The next assay deals with B16-F10. Description: Cytotoxicity against mouse melanoma B16F10 cell line.
In the next assay the test system is HT-29. The experiment in a line: Cytotoxicity against human colon adenocarcinoma HT-29 cell line.
For a further assay, the system named is P388. The experiment in a line: Cytotoxicity against mouse lymphocytic leukemia P388 cell line.
Assay [1] in a line: ED50 compared to that of taxol.

For `CC(=O)O[C@@H]1C2=C(C)[C@@H](OC(=O)[C@H](O)[C@@H](NC(=O)c3ccccc3)c3ccccc3)C[C@@](O)([C@@H](OC(=O)c3ccccc3)[C@@H]3[C@]4(OC(C)=O)CO[C@@H]4C[C@H](O)[C@@]3(C)[C@H]1O)C2(C)C` (stereo in doubt; 14a) [listing 1 of 2 here], the Cytotoxicity was determined as 11 ng/mL in the assay with A549, 39 ng/mL with B16-F10, 1.9 ng/mL with HT-29 and 140 ng/mL in the assay with P388.

For the compound `CCC1O[C@H]2C[C@H]3OC[C@@]3(OC(C)=O)[C@H]3[C@H](OC(=O)c4ccccc4)[C@]4(O)C[C@H](OC(=O)[C@H](O)[C@@H](NC(=O)c5ccccc5)c5ccccc5)C(C)=C([C@@H](OC(C)=O)[C@H](O1)[C@]23C)C4(C)C` (some centres undefined), the Cytotoxicity in the assay on A549 is 23 ng/mL; in the assay on B16-F10 it was 15 ng/mL; in the assay on HT-29, 16 ng/mL; in the assay with P388, 22 ng/mL.

Consider `CC(=O)O[C@@H]1C2=C(C)[C@@H](OC(=O)[C@H](O)[C@@H](NC(=O)c3ccccc3)c3ccccc3)C[C@@](O)([C@@H](OC(=O)c3ccccc3)[C@@H]3[C@]4(OC(C)=O)CO[C@@H]4C[C@H](O)[C@@]3(C)[C@H]1O)C2(C)C` (stereo in doubt; 14a) [listing 2 of 2 here], for which the Ratio in assay [1] was 0.83.

As to `CC(=O)OCCO[C@H]1C[C@H]2OC[C@@]2(OC(C)=O)[C@H]2[C@H](OC(=O)c3ccccc3)[C@]3(O)C[C@H](OC(=O)[C@H](O)[C@@H](NC(=O)c4ccccc4)c4ccccc4)C(C)=C([C@@H](OC(C)=O)[C@H](O)[C@]12C)C3(C)C`, the Cytotoxicity in the assay with A549 was found to be 120 ng/mL; in the assay on B16-F10, 43 ng/mL; in the assay with HT-29, 31 ng/mL; in the assay on P388 it was 79 ng/mL. Moreover, the Ratio in assay [1] turned out to be 2.47.

Take `CO[C@H]1C[C@H]2OC[C@@]2(OC(C)=O)[C@H]2[C@H](OC(=O)c3ccccc3)[C@]3(O)C[C@H](OC(=O)[C@H](O)[C@@H](NC(=O)c4ccccc4)c4ccccc4)C(C)=C([C@@H](OC(C)=O)[C@H](O)[C@]12C)C3(C)C`: the Cytotoxicity in the assay with A549 was determined as 1.2 ng/mL; with B16-F10, 1.5 ng/mL; with HT-29, 1.4 ng/mL; in the assay on P388, 3.9 ng/mL. Besides, the Ratio in assay [1] worked out at 0.92.

`CC(=O)O[C@H]1C(=O)[C@@]2(C)[C@H]([C@H](OC(=O)c3ccccc3)[C@]3(O)C[C@H](OC(=O)[C@H](O)[C@@H](NC(=O)c4ccccc4)c4ccccc4)C(C)=C1C3(C)C)[C@]1(OC(C)=O)CO[C@@H]1C[C@@H]2O` [PACLITAXEL]: the Cytotoxicity in the assay on A549 amounted to 4.3 ng/mL; in the assay on B16-F10, 6.3 ng/mL; with HT-29 it was 3.5 ng/mL; in the assay with P388, 11 ng/mL. Moreover, the Ratio in assay [1] stood at 1.

Consider `C=CCO[C@H]1C[C@H]2OC[C@@]2(OC(C)=O)[C@H]2[C@H](OC(=O)c3ccccc3)[C@]3(O)C[C@H](OC(=O)[C@H](O)[C@@H](NC(=O)c4ccccc4)c4ccccc4)C(C)=C([C@@H](OC(C)=O)[C@H](O)[C@]12C)C3(C)C`, for which the Cytotoxicity is 1 ng/mL in the assay on A549, 2.7 ng/mL in the assay with B16-F10, 1.2 ng/mL in the assay with HT-29 and 5.3 ng/mL with P388. Also, the Ratio in assay [1] was found to be 1.4.

On to `CCN(CC)CCO[C@H]1C[C@H]2OC[C@@]2(OC(C)=O)[C@H]2[C@H](OC(=O)c3ccccc3)[C@]3(O)C[C@H](OC(=O)[C@H](O)[C@@H](NC(=O)c4ccccc4)c4ccccc4)C(C)=C([C@@H](OC(C)=O)[C@H](O)[C@]12C)C3(C)C`, for which the Cytotoxicity was 400 ng/mL in the assay on A549, 110 ng/mL in the assay with B16-F10, 108 ng/mL with HT-29 and 310 ng/mL in the assay with P388. The Ratio in assay [1] turned out to be 2.61.

Consider `CC(=O)O[C@@H]1C2=C(C)[C@@H](OC(=O)[C@H](O)[C@@H](NC(=O)c3ccccc3)c3ccccc3)C[C@@](O)([C@@H](OC(=O)c3ccccc3)[C@@H]3[C@]4(O)CO[C@@H]4C[C@H](O)[C@@]3(C)[C@H]1O)C2(C)C`, for which the Cytotoxicity in the assay on A549, in the assay on B16-F10, in the assay with HT-29 and in the assay on P388 was over 1000 ng/mL each time. Further, the Ratio in assay [1] was over 10.

Turning to `CO[C@H]1C[C@H]2OC[C@@]2(OC(C)=O)[C@H]2[C@H](OC(=O)c3ccccc3)[C@]3(O)C[C@H](OC(=O)[C@H](O)[C@@H](NC(=O)OC(C)(C)C)c4ccccc4)C(C)=C([C@@H](OC(C)=O)[C@H](O)[C@]12C)C3(C)C`, the Cytotoxicity came to 0.27 ng/mL with A549, 0.2 ng/mL in the assay on B16-F10, 0.15 ng/mL in the assay with HT-29 and 0.6 ng/mL in the assay on P388. In addition, the Ratio in assay [1] worked out at 0.35.

Turning to `CC(=O)O[C@@H]1C2=C(C)[C@@H](OC(=O)[C@H](O)[C@@H](NC(=O)c3ccccc3)c3ccccc3)C[C@@](O)([C@@H](OC(=O)c3ccccc3)[C@@H]3[C@]4(OC(C)=O)CO[C@@H]4C[C@H](OCC(O)CO)[C@@]3(C)[C@H]1O)C2(C)C` (some centres undefined), the Cytotoxicity in the assay on A549 was 626 ng/mL; in the assay on B16-F10, over 1000 ng/mL; with HT-29 it was 310 ng/mL; with P388, over 1000 ng/mL. Besides, the Ratio in assay [1] was determined as 2.02.

In the case of `CC(=O)O[C@@H]1C2=C(C)[C@@H](OC(=O)[C@H](O)[C@@H](NC(=O)c3ccccc3)c3ccccc3)C[C@@](O)([C@@H](OC(=O)c3ccccc3)[C@@H]3[C@]4(OC(C)=O)CO[C@@H]4C[C@H](O)[C@@]3(C)[C@H]1O)C2(C)C` (stereo in doubt; 2) [listing 1 of 2 here], the Ratio in assay [1] is 0.75.

`CO[C@H]1[C@H](OC(C)=O)C2=C(C)[C@@H](OC(=O)[C@H](O)[C@@H](NC(=O)OC(C)(C)C)c3ccccc3)C[C@@](O)([C@@H](OC(=O)c3ccccc3)[C@@H]3[C@]4(OC(C)=O)CO[C@@H]4C[C@H](O)[C@]31C)C2(C)C`: the Cytotoxicity came to 0.1 ng/mL in the assay on A549, 0.9 ng/mL with B16-F10, 0.5 ng/mL in the assay on HT-29 and 1.3 ng/mL with P388. For the same compound, the Ratio in assay [1] was 0.51.

Take `CC(=O)O[C@@]12CO[C@@H]1C[C@H](O)[C@]1(C)[C@@H]2[C@H](OC(=O)c2ccccc2)[C@]2(O)C[C@H](OC(=O)[C@H](O)[C@@H](NC(=O)OC(C)(C)C)c3ccccc3)C(C)=C([C@@H](O)[C@@H]1O)C2(C)C`: the Cytotoxicity with A549 was 0.26 ng/mL; with B16-F10 it was 0.4 ng/mL; in the assay on HT-29, 0.65 ng/mL; with P388 it was 2.8 ng/mL. Also, the Ratio in assay [1] turned out to be 1.31.

Consider `CC(=O)O[C@@H]1C2=C(C)[C@@H](OC(=O)[C@H](O)[C@@H](NC(=O)c3ccccc3)c3ccccc3)C[C@@](O)([C@@H](OC(=O)c3ccccc3)[C@@H]3[C@]4(OC(C)=O)CO[C@@H]4C[C@H](OCCO)[C@@]3(C)[C@H]1O)C2(C)C`, for which the Cytotoxicity in the assay on A549 came out at 39 ng/mL; with B16-F10 it was 119 ng/mL; with HT-29, 10 ng/mL; with P388 it was 170 ng/mL. For the same compound, in assay [1], the Ratio turned out to be 1.77.

For `CC(=O)O[C@@H]1C2=C(C)[C@@H](OC(=O)[C@H](O)[C@@H](NC(=O)c3ccccc3)c3ccccc3)C[C@@](O)([C@@H](OC(=O)c3ccccc3)[C@@H]3[C@]4(OC(C)=O)CO[C@@H]4C[C@H](O)[C@@]3(C)[C@H]1O)C2(C)C` (stereo in doubt; 2) [listing 2 of 2 here], the Cytotoxicity in the assay on A549 is 22 ng/mL; in the assay on B16-F10, 25 ng/mL; in the assay on HT-29 it was 9.6 ng/mL; in the assay on P388 it was 57 ng/mL.

Turning to `CC(=O)O[C@@H]1C2=C(C)[C@@H](OC(=O)[C@H](O)[C@@H](NC(=O)c3ccccc3)c3ccccc3)C[C@@](O)([C@@H](OC(=O)c3ccccc3)[C@@H]3[C@]4(OC(C)=O)CO[C@@H]4C[C@@H]4OC(=S)O[C@@H]1[C@]43C)C2(C)C`, the Cytotoxicity in the assay on A549 came out at 19 ng/mL; in the assay on B16-F10 it was 20 ng/mL; in the assay with HT-29, 11 ng/mL; in the assay with P388, 35 ng/mL. Further, the Ratio in assay [1] turned out to be 2.78.

Turning to `CO[C@H]1[C@H](OC(C)=O)C2=C(C)[C@@H](OC(=O)[C@H](O)[C@@H](NC(=O)c3ccccc3)c3ccccc3)C[C@@](O)([C@@H](OC(=O)c3ccccc3)[C@@H]3[C@]4(OC(C)=O)CO[C@@H]4C[C@H](O)[C@]31C)C2(C)C`, the Cytotoxicity with A549 came out at 4.7 ng/mL; in the assay with B16-F10 it was 4.8 ng/mL; in the assay on HT-29 it was 3.1 ng/mL; in the assay with P388, 7.8 ng/mL. In addition, in assay [1], the Ratio was 1.74.

`CC(=O)O[C@@H]1C2=C(C)[C@@H](OC(=O)[C@H](O)[C@@H](NC(=O)c3ccccc3)c3ccccc3)C[C@@](O)([C@@H](OC(=O)c3ccccc3)[C@@H]3[C@]4(OC(C)=O)CO[C@@H]4C[C@H](OC(C)=O)[C@@]3(C)[C@H]1OC(C)=O)C2(C)C`: the Cytotoxicity with A549 is 15 ng/mL; in the assay on B16-F10, 13 ng/mL; with HT-29, 3.3 ng/mL; in the assay on P388, 22 ng/mL. Besides, in assay [1], the Ratio came out at 0.91.

In the case of `CC(=O)O[C@@H]1C2=C(C)[C@@H](OC(=O)[C@H](O)[C@@H](NC(=O)c3ccccc3)c3ccccc3)C[C@@](O)([C@@H](OC(=O)c3ccccc3)[C@@H]3[C@]4(OC(C)=O)CO[C@@H]4C[C@@H]4OC(C)(C)O[C@@H]1[C@]43C)C2(C)C`, the Cytotoxicity is 34 ng/mL in the assay on A549, 34 ng/mL in the assay on B16-F10, 29 ng/mL in the assay with HT-29 and 42 ng/mL with P388. The Ratio in assay [1] was 0.76.
